Source: patent US12091699B2, “Method for enhancing production of homeoprotein using inhibitor of lysosomal function” (Korea Advanced Institute of Science and Technology, priority 2021, dated 2024)

Experiments:
Assay type in all cases: cell-based, human
[1] = system: HeLa cell line that continuously produces the Otx2 homeoprotein; experiment: Dot blot analysis of Otx2 protein secreted into cell culture solution; settings: FIG. 2C
Procedure: In order to detect a homeoprotein secreted to the outside of the cell, a cell culture solution including sodium heparin was allowed to pass through a polyvinylidene difluoride (PVDF) membrane. Next, the membrane was treated with a blocking solution (TBST including 5% skim milk) and allowed to react at room temperature for 1 hour. Subsequently, the membrane was treated with a blocking solution including a primary antibody, allowed to react at 4° C. for 16 hours, then treated with a horseradish peroxidase (HRP)-conjugated secondary antibody, and cultured at room temperature for 1 hour, and then the membrane was exposed to an X-ray photosensitive film by inducing an enzymatic reaction using an ECL solution as a substrate to thereby analyze the results.
(§1) Accordingly, the present inventors treated a HeLa cell line that continuously produces the Otx2 homeoprotein manufactured in Example 2 with a V-ATPase inhibitor and a lysosomal pH enhancer as inhibitors of lysosomal function, and confirmed a change in secretion of the homeoprotein. The V-ATPase inhibitor is a lysosomal ion channel inhibitor, and when cells are treated with the inhibitor, the pH in the lysosome is increased, so the protein degradation by the lysosome may be suppressed because the activity of the hydrolase present in the lysosome is inhibited.
(§2) Furthermore, the level of secreted Otx2 protein and the intracellular expression level of Otx2 protein when the HeLa cells were treated with the inhibitor of lysosomal function were analyzed by a dot blot analysis and a western blot analysis.
(§3) In addition, the present inventors treated the HeLa cells with bafilomycin D (BafD) together with bafilomycin A1 (BafA1) and concanamycin A (ConA), which are types of V-ATPase inhibitors, at different concentrations, and performed an analysis in the same manner as in FIG. 2B.

[2] = system: HeLa cell line that continuously produces the Otx2 homeoprotein; experiment: Immunocytochemical staining of intracellular Otx2 protein after treatment with inhibitor of lysosomal function; settings: HeLa cells, treated 16 hours, FIG. 2A, vehicle: almost exclusively in cell nucleus
Procedure: Cells were cultured on a cover glass in a cell incubator for 24 hours or more, and treated with a fixing solution (physiological saline including 4% paraformaldehyde) at room temperature for 20 minutes to fix the cells. Next, after the cells were treated with a permeability-imparting solution (physiological saline including 0.1% TWEEN-20 (polysorbate 20)) at room temperature for 10 minutes, the cells were treated with a blocking solution (physiological saline including 10% donkey serum) at room temperature for 1 hour. Subsequently, the cells were treated with a blocking solution including a primary antibody, cultured at 4° C. for 16 hours, then treated with a blocking solution 10 including a fluorophore-conjugated secondary antibody, and cultured at room temperature for 1 hour. Then, the fluorescence signals of the cells were analyzed under an Olympus FV1000 confocal microscope.
as §1
Thus, specifically, after the HeLa cells were treated with each of V-ATPase inhibitors bafilomycin A1 (BafA1) and concanamycin A (ConA), and a lysosomal pH enhancer chloroquine (CQ) at different concentrations for 16 hours, the intracellular expression of the Otx2 protein was observed by immunocytochemical staining.

[3] = system: HeLa cell line that continuously produces the Otx2 homeoprotein; experiment: Western blot analysis of Otx2 protein in cell lysate; settings: for expression level of the Otx2 protein in cell lysate: HeLa cells, western blot V5 (Otx2), FIG. 2B; for intracellular expression of the Otx2 protein: FIG. 2C
Procedure: In order to detect a homeoprotein present inside the cell, cells were lysed with a RIPA lysate (tertiary distilled water including 20 mM Tris-HCl, pH 7.5, 150 mM NaCl, 1 mM Na2EDTA, 1 mM EGTA, 1% NP-40, 1% sodium deoxycholate, 2.5 mM sodium pyrophosphate, 1 mM β-glycerophosphate, 1 mM Na3VO4, and 1 μg/ml leupeptin), and then proteins in the cells were separated according to molecular weight by performing electrophoresis (SDS-PAGE) on the cell lysate on a polyacrylamide gel including sodium dodecyl sulfate. The gel was induced to electrically bind to a PVDF membrane after protein separation to transfer the proteins to the membrane.
The V-ATPase inhibitor is a lysosomal ion channel inhibitor, and when cells are treated with the inhibitor, the pH in the lysosome is increased, so the protein degradation by the lysosome may be suppressed because the activity of the hydrolase present in the lysosome is inhibited.
as §2, §3

[4] = concentration increased from 20 nM to 200 nM
[5] = concentration increased from 5 nM to 50 nM

Row | Molecule | secretion of the Otx2 protein to the outside of the cell [1, 4] | expression pattern (intracellular position) of Otx2 protein [2] | expression level of the Otx2 protein in cell lysate [3] | intracellular expression of the Otx2 protein [3, 4] | secretion of the Otx2 protein to the outside of the cell [1, 5] | intracellular expression of the Otx2 protein [3, 5]
1 | CO/C1=C\C(C)=C\[C@@H](C)[C@@H](O)[C@@H](C)C/C(C)=C/C=C/[C@H](OC)[C@@H]([C@@H](C)[C@@H](O)[C@H](C)[C@@]2(O)C[C@@H](O)[C@H](C)[C@@H](C(C)C)O2)OC1=O [BafA1, bafilomycin A1] | increased | occurred even in the cytoplasm including the cell nucleus | a big difference did not appear | increased | – | –
2 | CCN(CC)CCCC(C)Nc1ccnc2cc(Cl)ccc12 (stereo not drawn) [CQ, chloroquine] | – | occurred even in the cytoplasm including the cell nucleus | expressed at a higher level | – | – | –
3 | C/C=C/[C@H]1O[C@@](O)([C@@H](C)[C@H](O)[C@H](C)[C@H]2OC(=O)/C(OC)=C/C(C)=C/[C@@H](C)[C@@H](O)[C@@H](CC)[C@@H](O)[C@H](C)C/C(C)=C/C=C/[C@@H]2OC)C[C@@H](O[C@H]2C[C@@H](O)[C@H](OC(N)=O)[C@@H](C)O2)[C@@H]1C [ConA, concanamycin A] | – | occurred even in the cytoplasm including the cell nucleus | expressed at a higher level | – | increased | increased
4 | bafilomycin D [BafD] | increased | – | – | increased | – | –
